Among the data in ChEMBL document CHEMBL5050843, “Amide substituted thiazoles as protein secretion inhibitors” (2019) are IC50 values, retold here.

Type in all cases: functional, cell-based
A short description of assay [1]: Inhibition of PR1ss-Gluc secretion in doxycyclin-induced human Flp-In-T-REx-293 cells measured by Gaussia luciferase reporter gene method. Background: Reporter assays use an easily measured gene product as a stand-in for the process of interest.
Assay [2] can be described thus: Inhibition of PD1ss-Gluc secretion in doxycyclin-induced human Flp-In-T-REx-293 cells measured by Gaussia luciferase reporter gene method.
Assay [3] is described as follows: Inhibition of constitutively active VCAMss-Gluc secretion in human Flp-In-T-REx-293 cells measured by Gaussia luciferase reporter gene method.
The nature of assay [4]: Inhibition of constitutively active PR1ss-Gluc secretion in human Flp-In-T-REx-293 cells measured by Gaussia luciferase reporter gene method.

One may read the IC50 as the concentration that gives 50% inhibition.

In the case of `CC(C)(C)c1csc(NC(=O)Cc2cn(Cc3ccccc3C#N)c3ccc(Cl)cc23)n1`, the figures for the half-maximal inhibitory concentration (IC50) in assay [1] and in assay [2] were over 25 µM and 3.65 µM, respectively.

As for `CC(C)(C)c1csc(NC(=O)Cc2cn(-c3ccccc3Cl)c3ccc(Cl)cc23)n1`, the IC50 in assay [1] is over 25 µM; in assay [2], 4.4 µM.

Consider `CC(C)(C)c1csc(NC(=O)Cc2cn(-c3ccccn3)c3ccc(Cl)cc23)n1`, for which the values for the concentration for half-maximal inhibition (IC50) in assay [1] and in assay [2] were over 25 µM and 8.72 µM, respectively.

Turning to `CNC(=O)c1ccc2sc(C(=O)Nc3nc(C(C)(C)C)cs3)cc2c1`, the IC50 was found to be 7.44 µM in assay [1] and 8.8 µM in assay [2].

In the case of `CC(C)(C)c1csc(NC(=O)c2cc3ccccc3o2)n1`, the concentration for half-maximal inhibition (IC50) in assay [3] was 23.8 µM; in assay [4] it was over 25 µM.

Regarding `CC(C)(C)c1csc(NC(=O)C2CCOC2)n1` (stereo unspecified), the IC50 in assay [3] and in assay [4] was over 25 µM throughout.

Consider `CC(C)(C)c1csc(NC(=O)Cc2cccs2)n1`, for which the figures for the IC50 in assay [3] and in assay [4] were 5.7 µM and over 80 µM, respectively.

For `CC(C)(C)c1csc(NC(=O)CC2CCCCCC2)n1`, the half-maximal inhibitory concentration (IC50) is 5.07 µM in assay [3] and over 25 µM in assay [4].

Turning to `Cc1cc(C(=O)N(C)c2nc(C(C)(C)C)cs2)cs1`, the half-maximal inhibitory concentration (IC50) in assay [3] and in assay [4] was over 25 µM in each case.

In the case of `CC(C)(C)c1csc(NC(=O)Cc2cc(F)c(F)c(F)c2)n1`, the IC50 in assay [3] was 8.18 µM; in assay [4] it was over 25 µM.

As for `CCc1csc(NC(=O)c2csc(C)c2)n1`, the concentration for half-maximal inhibition (IC50) in assay [3] and in assay [4] was over 25 µM each time.

`CC(C)(C)c1csc(NC(=O)Cc2ccccc2Cl)n1`: the IC50 in assay [3] was 18.4 µM; in assay [4] it was over 25 µM.

Regarding `CC(C)(C)c1csc(NC(=O)CCc2ccccc2)n1`, the concentration for half-maximal inhibition (IC50) in assay [3] was 17.4 µM; in assay [4], over 25 µM.

`CC(C)(C)c1csc(NC(=O)Cc2ccc(Cl)c(Cl)c2)n1`: the IC50 in assay [3] is 2.64 µM; in assay [4], over 25 µM.

Regarding `CC(C)(C)c1csc(NC(=O)[C@H](O)c2cccc(Cl)c2)n1`, the IC50 in assay [3] and in assay [4] was over 25 µM in each case.

As to `CC(C)(C)c1csc(NC(=O)C2=CCCCC2)n1`, the IC50 in assay [3] was 23.7 µM; in assay [4], over 25 µM.

As for `CC(C)(C)c1csc(NC(=O)c2ccc3[nH]ncc3c2)n1`, the concentration for half-maximal inhibition (IC50) is 20.7 µM in assay [3] and over 25 µM in assay [4].

`CC#Cc1ccc2sc(C(=O)Nc3nc(C(C)(C)C)cs3)cc2c1`: the results for the IC50 in assay [3] and in assay [4] were 4.97 µM and over 25 µM, respectively.

As for `CC(C)(C)c1csc(NC(=O)Cc2ccc3cn[nH]c3c2)n1`, the 50% inhibitory concentration (IC50) in assay [3] and in assay [4] was over 25 µM each time.

Consider `CC(C)(C)c1csc(NC(=O)c2cccc(C#N)c2)n1`, for which the IC50 in assay [3] and in assay [4] was over 25 µM each time.

For the molecule `CC(C)(CCO)c1csc(NC(=O)Cc2csc3ccc(Cl)cc23)n1`, the IC50 in assay [3] and in assay [4] was over 25 µM each time.

For the molecule `CC(C)(C)c1csc(NC(=O)CCc2csc3ccccc23)n1`, the concentration for half-maximal inhibition (IC50) in assay [3] is 23.1 µM; in assay [4], over 25 µM.

Consider `CC(C)(C)c1csc(NC(=O)C(C)(C)c2ccccc2)n1`, for which the values for the half-maximal inhibitory concentration (IC50) in assay [3] and in assay [4] were 14.7 µM and over 25 µM, respectively.

Consider `CC(C)(C)c1csc(NC(=O)C(C)(C)c2cccc(Cl)c2)n1`, for which the IC50 is 8.6 µM in assay [3] and over 25 µM in assay [4].

With `Cc1c(C(=O)Nc2nc(C(C)(C)C)cs2)sc2ccc(Cl)cc12`, the IC50 in assay [3] and in assay [4] was over 25 µM throughout.

As to `CC(C)(C)c1csc(NC(=O)c2cc3cc(C(N)=O)ccc3s2)n1`, the IC50 in assay [3] and in assay [4] was over 25 µM each time.

Turning to `Cn1cc(CC(=O)Nc2nc(C(C)(C)C)cs2)c2ccccc21`, the IC50 in assay [3] was 4.51 µM; in assay [4], over 25 µM.

As to `CC(C)(C)c1csc(NC(=O)c2ccc3ocnc3c2)n1`, the concentration for half-maximal inhibition (IC50) in assay [3] and in assay [4] was over 25 µM in each case.

For `CC(C)(C)c1csc(NC(=O)Cc2csc3ccc(-c4ccccc4)cc23)n1`, the concentration for half-maximal inhibition (IC50) in assay [3] is 4.57 µM; in assay [4], over 25 µM.

With `CC(C)(C)c1csc(NC(=O)C(Cc2ccccc2)c2csc3ccc(Cl)cc23)n1` (stereo unspecified), the concentration for half-maximal inhibition (IC50) was 3.92 µM in assay [3] and over 25 µM in assay [4].

Regarding `CC(C)(C)c1csc(NC(=O)Cc2cccc(Cl)c2)n1`, the results for the IC50 in assay [3] and in assay [4] were 7.85 µM and over 25 µM, respectively.

Turning to `CC(C)(C)c1csc(NC(=O)c2cc3ccccc3s2)n1`, the half-inhibitory concentration (IC50) in assay [3] was 4.93 µM; in assay [4], over 25 µM.

Take `C[C@@H](C(=O)Nc1nc(C(C)(C)C)cs1)c1ccccc1`: the values for the 50% inhibitory concentration (IC50) in assay [3] and in assay [4] were 11.1 µM and over 25 µM, respectively.

Turning to `CC(C)(C)c1csc(NC(=O)c2ccc3c(c2)OCCN3)n1`, the IC50 in assay [3] and in assay [4] was over 25 µM each time.

Turning to `O=C(Cc1csc2ccc(Cl)cc12)Nc1nc(Cc2ccccc2)cs1`, the half-inhibitory concentration (IC50) was 19.9 µM in assay [3] and over 25 µM in assay [4].

With `CC(C)(C)c1csc(NC(=O)C2=CCCC2)n1`, the IC50 in assay [3] and in assay [4] was over 25 µM throughout.

Regarding `CC(C)(C)c1csc(NC(=O)Cn2cnc3ccccc32)n1`, the IC50 in assay [3] and in assay [4] was over 25 µM in each case.

`CC(C)(C)c1csc(NC(=O)CC2CCCC2)n1`: the IC50 was 9.82 µM in assay [3] and over 25 µM in assay [4].

Regarding `CC(C)(C)c1csc(NC(=O)CC2CCOCC2)n1`, the IC50 in assay [3] and in assay [4] was over 25 µM in each case.

For `CC(C)(C)c1csc(NC(=O)c2ccccc2Cl)n1`, the IC50 in assay [3] and in assay [4] was over 25 µM in each case.

Turning to `CC(C(=O)Nc1nc(C(C)(C)C)cs1)c1csc2ccc(Cl)cc12` (stereo unspecified), the values for the half-maximal inhibitory concentration (IC50) in assay [3] and in assay [4] were 3.21 µM and over 25 µM, respectively.

As for `CC(C)(C)c1csc(NC(=O)Cc2cccc(S(C)(=O)=O)c2)n1`, the 50% inhibitory concentration (IC50) in assay [3] and in assay [4] was over 25 µM in each case.

For `CC(C)(C)c1csc(NC(=O)C2CCCc3ccccc32)n1` (stereo unspecified), the IC50 in assay [3] and in assay [4] was over 25 µM throughout.

As to `CC(C)(C)c1csc(NC(=O)Cc2cn(Cc3cccnc3)c3ccc(Cl)cc23)n1`, the 50% inhibitory concentration (IC50) was 3.67 µM in assay [3] and over 25 µM in assay [4].

As for `CC(C)(C)c1csc(NC(=O)c2cccc(CN3CCOCC3)c2)n1`, the concentration for half-maximal inhibition (IC50) in assay [3] and in assay [4] was over 25 µM each time.

As for `CC(C)(C)c1csc(NC(=O)Cc2cccc(C(F)(F)F)c2)n1`, the values for the IC50 in assay [3] and in assay [4] were 6.81 µM and over 25 µM, respectively.

Take `CC(C)(C)c1csc(NC(=O)Cc2ccc3ccccc3c2)n1`: the IC50 in assay [3] is 15 µM; in assay [4], over 25 µM.

`COc1cccc(CC(=O)Nc2nc(C(C)(C)C)cs2)c1`: the 50% inhibitory concentration (IC50) in assay [3] was 10.3 µM; in assay [4] it was over 25 µM.

`Cc1csc(C(=O)Nc2nc(C(C)(C)C)cs2)c1`: the results for the IC50 in assay [3] and in assay [4] were 17.1 µM and over 25 µM, respectively.

Consider `CC(C)(C)c1csc(CNC(=O)Cc2csc3ccccc23)n1`, for which the IC50 in assay [3] and in assay [4] was over 25 µM each time.

On to `CC(C)(C)c1csc(NC(=O)Cn2ncc3ccccc32)n1`, for which the half-inhibitory concentration (IC50) in assay [3] and in assay [4] was over 25 µM each time.

On to `CC(C)(C)c1csc(NC(=O)c2cc3cc(Cl)ccc3s2)n1`, for which the IC50 is 9.27 µM in assay [3] and over 25 µM in assay [4].

On to `CCCc1ccc2sc(C(=O)Nc3nc(C(C)(C)C)cs3)cc2c1`, for which the IC50 is 14.1 µM in assay [3] and over 25 µM in assay [4].

For the molecule `Cc1cccc2scc(CC(=O)Nc3nc(C(C)(C)C)cs3)c12`, the values for the 50% inhibitory concentration (IC50) in assay [3] and in assay [4] were 3.2 µM and over 25 µM, respectively.

Take `CC(C)(C)c1csc(NC(=O)Cc2cn(Cc3ccccn3)c3ccc(Cl)cc23)n1`: the IC50 is 2.08 µM in assay [3] and over 25 µM in assay [4].

With `CC(C)(C)c1csc(NC(=O)Cc2cn(Cc3ccc(Cl)cc3)c3ccc(Cl)cc23)n1`, the half-maximal inhibitory concentration (IC50) in assay [3] was 0.325 µM; in assay [4], over 25 µM.

As to `CC(C)(C)c1csc(NC(=O)c2ccc3cn[nH]c3c2)n1`, the IC50 in assay [3] and in assay [4] was over 25 µM throughout.

With `CC(C)(C)c1csc(NC(=O)c2cc3cc(C4CCCC4)ccc3s2)n1`, the IC50 in assay [3] and in assay [4] was over 25 µM throughout.

For `CC(C)(C)c1csc(NC(=O)c2cccc(Cl)c2)n1`, the half-inhibitory concentration (IC50) in assay [3] is 8.4 µM; in assay [4] it was over 25 µM.

For the molecule `CC(C)(C)c1csc(NC(=O)c2cccc(C(F)(F)F)c2)n1`, the IC50 in assay [3] was 7.6 µM; in assay [4], over 80 µM.

Take `CC(C)(C)c1csc(NC(=O)c2cccc(N3CCCC3)c2)n1`: the IC50 in assay [3] and in assay [4] was over 25 µM each time.

Turning to `CCCCCc1ccc2sc(C(=O)Nc3nc(C(C)(C)C)cs3)cc2c1`, the IC50 is 8.14 µM in assay [3] and over 25 µM in assay [4].

Consider `CC(C)(C)c1csc(NC(=O)c2cc3c(Cl)cccc3s2)n1`, for which the IC50 is 5.7 µM in assay [3] and over 25 µM in assay [4].

On to `CC(C)(C)c1csc(NC(=O)c2csc3ccccc23)n1`, for which the results for the half-inhibitory concentration (IC50) in assay [3] and in assay [4] were 22.6 µM and over 25 µM, respectively.

On to `CC(C)(C)c1csc(NC(=O)c2cc3cc(-c4cccnc4)ccc3s2)n1`, for which the IC50 in assay [3] and in assay [4] was over 25 µM in each case.

For `CC(C)(C)c1csc(NC(=O)Cc2cccc(C#N)c2)n1`, the IC50 is 15.4 µM in assay [3] and over 25 µM in assay [4].

With `CC(C)(C)c1csc(NC(=O)c2ccnnc2)n1`, the IC50 in assay [3] and in assay [4] was over 25 µM in each case.

With `Cn1c(C(=O)Nc2nc(C(C)(C)C)cs2)cc2ccccc21`, the results for the IC50 in assay [3] and in assay [4] were 2.21 µM and over 25 µM, respectively.

`Cc1ccc(CC(=O)Nc2nc(C(C)(C)C)cs2)c(C)c1`: the IC50 in assay [3] is 7.45 µM; in assay [4] it was over 25 µM.

Turning to `CC(C)(C)c1csc(NC(=O)Cc2csc3ccccc23)n1`, the values for the IC50 in assay [3] and in assay [4] were 1.76 µM and over 25 µM, respectively.

Consider `CC(C)(C)c1csc(NC(=O)Cc2ccccc2)n1`, for which the IC50 is 24.1 µM in assay [3] and over 25 µM in assay [4].

Take `CC(C)(C)c1csc(NC(=O)Cc2c[nH]c3ccccc23)n1`: the IC50 in assay [3] and in assay [4] was over 25 µM in each case.

Turning to `CC(C)(C)c1csc(NC(=O)Cc2cc(Cl)cc(Cl)c2)n1`, the half-maximal inhibitory concentration (IC50) is 1.69 µM in assay [3] and over 25 µM in assay [4].
